# Test results reported in PubChem BioAssay (NCI).
# Where “and” joins values, the source holds several entries; their conditions need not be identical. Identical values can stand only once.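 Each compound was tested at five concentrations against cells in 96-well plates for 48 hours. GI50: concentration for 50% inhibition of growth. TGI marks complete inhibition of growth.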
# Tests used:
# Experiment in all cases: DTP human tumour cell line panel, 48 h
# EKVX NSCLC = system: EKVX NSCLC
# MDA-MB-435 = system: MDA-MB-435
# PC-3 prostate = system: PC-3 prostate
# NCI-H460 lung = system: NCI-H460 lung
# OVCAR-4 ovarian = system: OVCAR-4 ovarian
# ACHN renal = system: ACHN renal
# HS 578T breast = system: HS 578T breast
# COLO 205 colon = system: COLO 205 colon
# SK-MEL-28 melanoma = system: SK-MEL-28 melanoma
# SF-539 CNS = system: SF-539 CNS
SMILES,GI50 (EKVX NSCLC),TGI (EKVX NSCLC),GI50 (MDA-MB-435),TGI (MDA-MB-435),GI50 (PC-3 prostate),TGI (PC-3 prostate),GI50 (NCI-H460 lung),TGI (NCI-H460 lung),GI50 (OVCAR-4 ovarian),TGI (OVCAR-4 ovarian),GI50 (ACHN renal),TGI (ACHN renal),GI50 (HS 578T breast),TGI (HS 578T breast),GI50 (COLO 205 colon),TGI (COLO 205 colon),GI50 (SK-MEL-28 melanoma),TGI (SK-MEL-28 melanoma),GI50 (SF-539 CNS),TGI (SF-539 CNS)
Cc1cccc(C(=O)/C=C/SC(=NC#N)SCc2ccccc2)c1,28 µM,63.2 µM,23100 nM,72.1 µM,16.4 µM,50.8 µM,36.5 µM,> 100 µM,> 100 µM,> 100 µM,25600 nM,67 µM,27.9 µM,94.8 µM,33.6 µM,> 100 µM,25800 nM,67 µM,6.67 µM,31.7 µM
CN(C)c1ccc(/C=C2\N=C(c3ccc([N+](=O)[O-])cc3)OC2=O)cc1,–,> 100 µM,–,> 100 µM,–,> 100 µM,–,> 100 µM,–,> 100 µM,–,> 100 µM,–,> 100 µM,–,> 100 µM,–,> 100 µM,–,> 100 µM
COC(=O)[C@]12CC[C@@H](C)[C@H](C)[C@@H]1C1=CC[C@@H]3[C@@]4(C)C(C=O)=C[C@@](C)(COC(=O)c5ccco5)[C@@H]4C(=O)C[C@@]3(C)[C@]1(C)CC2,4.64 µM,> 100 µM,193 nM,4.33 µM,3.66 µM,> 100 µM,3.92 µM,> 100 µM,3.57 µM,> 100 µM,1220 nM,> 100 µM,9.68 µM,> 100 µM,0.0314 µM,0.0971 µM,52.4 nM,> 100 µM,23 µM,> 100 µM
CC/C=C\C/C=C\C[C@H](O)C/C=C1/C(=O)C=C[C@@H]1C/C=C\CCCC(=O)O,14.5 µM,30.5 µM,3100 nM,12 µM,6.03 µM,21.5 µM,3.84 µM,> 100 µM,4.15 µM,20 µM,4840 nM,18.5 µM,28.4 µM,> 100 µM,3.78 µM,10.9 µM,3830 nM,13.3 µM,3.85 µM,15.2 µM
CNC(=O)c1ccc2cc(C3(O)CCn4cncc43)ccc2c1 (stereo unspecified),> 100 µM,> 100 µM,> 100000 nM,> 100 µM,> 100 µM,> 100 µM,> 100 µM,> 100 µM,> 100 µM,> 100 µM,> 100000 nM,> 100 µM,> 100 µM,> 100 µM,> 100 µM,> 100 µM,> 100000 nM,> 100 µM,> 100 µM,> 100 µM
CC(=O)c1c(C)n(C)c2c1nnc1ccccc12,–,50.3 µM,–,> 100 µM,–,> 100 µM,–,> 100 µM,–,> 100 µM,–,> 100 µM,–,> 100 µM,–,> 100 µM,–,> 100 µM,–,> 100 µM
O=C(CN1CCN(c2ccc(Cl)cc2)CC1)N1CCN(c2nnc(-c3ccc(Cl)cc3)c(-c3ccc(Cl)cc3)n2)CC1,21.5 µM,> 100 µM,50900 nM,> 100 µM,57.5 µM,> 100 µM,> 100 µM,> 100 µM,> 100 µM,> 100 µM,31500 nM,> 100 µM,24 µM,> 100 µM,55.3 µM,> 100 µM,> 100000 nM,> 100 µM,19.6 µM,69.9 µM
C=CC(C)(O)/C=C/C=C(\C)C(CC1OC1(C)C)OC(=O)/C(C)=C\C (stereo unspecified),–,> 100 µM,–,> 100 µM,–,> 100 µM,–,> 100 µM,–,> 100 µM,–,> 100 µM,–,> 100 µM,–,> 100 µM,–,> 100 µM,–,> 100 µM
COC1CCC(O)C(/C=C/[N+](=O)[O-])C1 (stereo unspecified),–,15.1 µM,–,3.67 µM,–,6.01 µM,–,7.73 µM,–,28.4 µM,–,29.9 µM,–,17.2 µM,–,5.7 µM,–,54.9 µM,–,16.6 µM
O=P(NC12CC3CC(CC(C3)C1)C2)(N1CC1)N1CC1,–,> 100 µM,–,> 100 µM,–,> 100 µM,–,> 100 µM,–,> 100 µM,–,> 100 µM,–,> 100 µM,–,> 100 µM,–,> 100 µM,–,75.5 µM
CN1CCN(c2ccc3nc(-c4c(N)c5c(F)cccc5[nH]c4=O)[nH]c3c2)CC1,2.38 µM and > 2.44 µM and 4.23 µM,9.65 µM and > 7.22 µM and 16.2 µM,974 nM and 535 nM and 1080 nM,2.34 µM and 1.85 µM and 2.61 µM,1.16 µM and 1.02 µM and 1.73 µM,7.1 µM and > 7.42 µM and 8.59 µM,0.369 µM and 0.344 µM and 0.454 µM,1.72 µM and 1.79 µM and 2.2 µM,0.622 µM and 0.498 µM and 0.646 µM,4.55 µM and > 10 µM and 10.9 µM,335 nM and 342 nM and 371 nM,1.83 µM and > 6.36 µM and 4.74 µM,0.791 µM and 0.286 µM and 0.974 µM,5.77 µM and > 2.37 µM and 9.75 µM,0.965 µM and 0.496 µM and 2.26 µM,2.31 µM and > 2.04 µM and 17.2 µM,1510 nM and 801 nM and 1430 nM,2.96 µM and 2.79 µM and 3.02 µM,0.566 µM and 0.338 µM and 0.487 µM,1.96 µM and 1.21 µM and 1.75 µM
CN(N=O)C(=O)N[C@@H](C=O)[C@@H](O)[C@H](O)[C@H](O)CO,> 750 µM,> 750 µM,–,> 750 µM,–,> 750 µM,> 750 µM,> 750 µM,> 750 µM,609 µM and > 750 µM,–,> 750 µM,–,> 750 µM,> 750 µM,640 µM and > 750 µM,> 750000 nM,> 750 µM,> 750 µM,> 750 µM
